US8980899B2, “Methods of inhibiting Ire1” (The Regents of the University of California, priority 2009, dated 2015)
Each block holds one compound with its values, some of them ahead of it.

Columns and labels:
yeast Ire1 = target: T1, yeast Ire1 (Saccharomyces cerevisiae, UniProt P32361); experiment: In vitro inhibition assay, cleavage of 32P-labeled RNA by yeast Ire1; type: biochemical; settings: for Ire1 activity with yeast Ire1: RNA cleavage, 32P-labeled RNA, 30° C., Control (no inhibitor) 0.1149
T1 sequence (P32361 19-1115): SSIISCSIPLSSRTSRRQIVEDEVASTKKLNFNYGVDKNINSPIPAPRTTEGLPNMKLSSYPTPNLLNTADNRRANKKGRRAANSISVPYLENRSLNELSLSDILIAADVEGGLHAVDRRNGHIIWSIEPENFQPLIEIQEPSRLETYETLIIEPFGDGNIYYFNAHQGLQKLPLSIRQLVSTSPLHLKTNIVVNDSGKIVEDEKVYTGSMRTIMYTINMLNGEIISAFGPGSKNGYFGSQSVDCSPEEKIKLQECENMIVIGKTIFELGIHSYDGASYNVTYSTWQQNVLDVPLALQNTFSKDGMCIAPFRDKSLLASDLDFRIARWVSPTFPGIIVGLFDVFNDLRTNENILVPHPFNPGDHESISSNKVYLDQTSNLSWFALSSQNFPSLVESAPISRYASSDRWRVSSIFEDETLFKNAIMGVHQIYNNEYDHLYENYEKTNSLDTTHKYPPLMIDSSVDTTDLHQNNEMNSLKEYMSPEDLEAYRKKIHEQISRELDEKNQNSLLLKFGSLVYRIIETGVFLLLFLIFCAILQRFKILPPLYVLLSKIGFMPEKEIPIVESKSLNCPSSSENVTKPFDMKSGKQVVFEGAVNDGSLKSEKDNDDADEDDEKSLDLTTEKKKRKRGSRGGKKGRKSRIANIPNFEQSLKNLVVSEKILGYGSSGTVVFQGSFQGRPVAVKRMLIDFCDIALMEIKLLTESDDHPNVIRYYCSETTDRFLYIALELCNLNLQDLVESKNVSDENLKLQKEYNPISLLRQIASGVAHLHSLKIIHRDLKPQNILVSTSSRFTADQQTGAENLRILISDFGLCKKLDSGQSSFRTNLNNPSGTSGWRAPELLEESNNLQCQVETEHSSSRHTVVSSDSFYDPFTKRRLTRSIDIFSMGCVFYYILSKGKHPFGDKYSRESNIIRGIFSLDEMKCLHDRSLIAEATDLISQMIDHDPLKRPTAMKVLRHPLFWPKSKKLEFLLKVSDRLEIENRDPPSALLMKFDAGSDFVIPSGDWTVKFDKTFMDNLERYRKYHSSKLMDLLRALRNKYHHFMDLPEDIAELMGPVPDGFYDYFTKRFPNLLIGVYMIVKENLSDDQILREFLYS

[1] = target: Recombinant human Ire1-alpha (Homo sapiens, UniProt O75460); experiment: In vitro inhibition assay, cleavage of 32P-stem-loop RNA by human Ire1; type: biochemical; design: Ire1 activity with human Ire1 alpha: unit not given here; settings: for Ire1 activity with human Ire1 alpha: RNA cleavage, 1 μM Ire1, 32P-labeled RNA, 30° C., Control (no inhibitor) 0.085; for Ire1 activity: in vitro cleavage of 32P-stem-loop RNA by human Ire1, AD series, Control (no inhibitor) 8.8310e−3
Recombinant human Ire1-alpha, sequence (O75460 19-977): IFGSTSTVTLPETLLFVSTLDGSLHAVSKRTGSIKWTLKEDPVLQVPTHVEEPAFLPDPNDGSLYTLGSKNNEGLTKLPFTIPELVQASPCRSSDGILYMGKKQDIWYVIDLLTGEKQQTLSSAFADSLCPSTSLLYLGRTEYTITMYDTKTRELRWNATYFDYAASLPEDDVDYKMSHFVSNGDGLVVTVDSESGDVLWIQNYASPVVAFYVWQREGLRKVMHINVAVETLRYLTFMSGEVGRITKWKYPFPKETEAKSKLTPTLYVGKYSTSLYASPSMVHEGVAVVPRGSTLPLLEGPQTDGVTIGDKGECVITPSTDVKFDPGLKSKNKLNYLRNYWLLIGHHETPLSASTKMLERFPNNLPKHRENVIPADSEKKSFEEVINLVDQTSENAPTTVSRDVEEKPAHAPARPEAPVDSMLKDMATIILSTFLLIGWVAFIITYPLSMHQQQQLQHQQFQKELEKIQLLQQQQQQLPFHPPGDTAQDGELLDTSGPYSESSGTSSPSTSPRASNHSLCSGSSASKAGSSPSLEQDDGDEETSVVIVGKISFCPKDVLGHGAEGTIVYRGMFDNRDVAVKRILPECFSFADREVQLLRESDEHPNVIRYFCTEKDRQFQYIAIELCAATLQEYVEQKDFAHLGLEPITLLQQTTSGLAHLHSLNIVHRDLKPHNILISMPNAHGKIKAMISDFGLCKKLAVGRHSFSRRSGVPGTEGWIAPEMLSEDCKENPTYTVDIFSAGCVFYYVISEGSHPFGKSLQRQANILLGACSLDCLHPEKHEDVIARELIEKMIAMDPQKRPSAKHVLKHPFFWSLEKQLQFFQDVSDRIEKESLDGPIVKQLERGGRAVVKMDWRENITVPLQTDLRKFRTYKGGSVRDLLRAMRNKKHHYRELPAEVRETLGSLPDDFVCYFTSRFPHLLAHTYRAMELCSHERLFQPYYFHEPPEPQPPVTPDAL
Procedure: Recombinant human […]) was mixed with reaction buffer, inhibitor solution in DMSO, and ^32P-labeled RNA substrate having sequence 5'-[…] NO:1). Reactions were conducted at 30° C. and initiated by adding the RNA to reaction pre-mix containing all the components minus the RNA. […] (The reaction mixture may be modified by using different components or concentrations, different RNA substrate, or different Ire1 protein construct.) At time intervals (0 seconds, 10 seconds, 30 seconds, and 3 minutes), 1 μl aliquots of reaction mixture were taken and quenched in 10 M Urea, 0.1% SDS. Samples were analyzed by denaturing polyacrylamide gel electrophoresis and quantified using Typhoon phosphorImager. […] Reactions with Irestatin and exemplary compounds were conducted analogously. Irestatin was a gift obtained from the SPECS screen available as 5 mM solution in DMSO at UCSF small molecule discovery center.

yIre1 = target: T2, yIre1 (Saccharomyces cerevisiae, UniProt P32361); experiment: RNase cleavage assay (yIre1 activation); type: biochemical, yeast; settings: yIre1 RNA cleavage, 30° C., 2 mM ADP; Control (no inhibitor) 0.000504
T2 sequence (P32361 19-1115): T1 sequence (P32361 19-1115)
Procedure: RNA cleavage reactions were conducted at 30° C. in buffer containing 20 mM HEPES (pH 7.5), 70 mM NaCl, 2 mM ADP (pH 7.0), 2 mM Mg(OAc)2, 5 mM DTT, 5% glycerol, less than 1 nM ^32p-labeled RNA substrate, and 3 nM-[…] Ire1. Reaction solutions and buffers were designed using Biochem Lab Solutions 3.5. Reactions were prepared such that 1 μl of RNA was added to 9 μl of pre-warmed reaction mixture containing all components except RNA. Typically, 3-10 minute time courses were collected starting from 5 seconds for the first time point. At time intervals, 1 μl of solution was withdrawn from each reaction and mixed with 6 μl stop solution containing 10 M urea, 0.1% SDS, 0.1 mM EDTA, 0.05% xylene cyanol, and 0.05% bromophenol blue. The samples were separated by a denaturing 10% PAGE and exposed on a phosphor storage screen. The screens were scanned on a Storm or a Typhoon instrument and quantified using ImageQuant 5.0 or GelQuant.NET 1.4 programs. The data were plotted and fit in SigmaPlot 6.0.

hIre1 = hIre1 (Homo sapiens, UniProt O75460); experiment: Titrations of Ire1 inhibitors to measure Ki using 1 μM hIre1; type: biochemical; settings: 1 μM hIre1, 5′-32p-HP21, 30° C.
hIre1, sequence (O75460 19-977): as above
Procedure: Recombinant human Ire1-alpha (1 μM f/c) was mixed with reaction buffer, inhibitor solution in DMSO, and ^32P-labeled RNA substrate having sequence 5′-UGCACCUCUGCAGCAGGUGCA (SEQ ID NO:1). Reactions were conducted at 30° C. and initiated by adding the RNA to reaction pre-mix containing all the components minus the RNA. The final reaction contained: 20 mM HEPES pH 7, 70 mM NaCl, 2 mM MgCl2, 5% glycerol, 4 mM DTT, 10% DMSO, 1 μM Ire1 and <1 nM 32P-labeled RNA. (The reaction mixture may be modified by using different components or concentrations, different RNA substrate, or different Ire1 protein construct.)
At time intervals (0 seconds, ˜10 seconds, ˜30 seconds, and ˜3 minutes), 1 μl aliquots of reaction mixture were taken and quenched in 10 M Urea, 0.1% SDS. Samples were analyzed by denaturing polyacrylamide gel electrophoresis and quantified using Typhoon phosphorImager.
Inhibition was measured by the extent of RNA cleavage slowdown in the presence of inhibitor (0.3-100 μM) compared to reaction containing no inhibitors.

Compound: CC(C)n1nc(Cc2cccc(NC(=O)Nc3cccc(C(F)(F)F)c3)c2)c2c(N)ncnc21 [AD36, 1-(3-((4-amino-1-isopropyl-1H-pyrazolo[3,4-d]pyrimidin-3-yl)methyl)phenyl)-3-(3-(trifluoromethyl)phenyl)urea]
Ire1 activity with yeast Ire1 (yeast Ire1): 1.05E−03
Ire1 activity with human Ire1 alpha [1]: 0.09575
Ire1 activity (yIre1): 0.000322

Compound: Nc1ncnc2c1c(-c1ccc(NC(=O)c3cccc(C(F)(F)F)c3)cc1)nn2[C@H]1CCOC1 [AD67, N-(4-(4-amino-1-((S)-tetrahydrofuran-3-yl)-1H-pyrazolo[3,4-d]pyrimidin-3-yl)phenyl)-3-(trifluoromethyl)benzamide]
Ire1 activity [1]: 0.0100

Compound: Nc1ncnc2c1c(-c1ccc(NC(=O)c3cccc(C(F)(F)F)c3)cc1)nn2[C@@H]1CCOC1 [AD68, N-(4-(4-amino-1-((R)-tetrahydrofuran-3-yl)-1H-pyrazolo[3,4-d]pyrimidin-3-yl)phenyl)-3-(trifluoromethyl)benzamide]
Ire1 activity [1]: 8.4550e−3

Compound: Nc1ncnc2c1c(-c1ccc(NC(=O)Nc3cccc(C(F)(F)F)c3)cc1)nn2[C@H]1CCN(C(=O)Nc2cccc(C(F)(F)F)c2)C1 [AD71c]
Ire1 activity [1]: 1.2650e−3

Compound: Nc1ncnc2c1c(Cc1cccc(NC(=O)c3cccc(C(F)(F)F)c3)c1)nn2Cc1ccccc1 [BB5, N-(3-((4-amino-1-benzyl-1H-pyrazolo[3,4-d]pyrimidin-3-yl)methyl)phenyl)-3-(trifluoromethyl)benzamide]
Ire1 activity with yeast Ire1 (yeast Ire1): 5.00E−03
Ire1 activity with human Ire1 alpha [1]: 0.1247

Compound: Nc1ncnc2c1c(Cc1cccc(NC(=O)Nc3cccc(C(F)(F)F)c3)c1)nn2Cc1ccccc1 [BB6, 1-(3-((4-amino-1-benzyl-1H-pyrazolo[3,4-d]pyrimidin-3-yl)methyl)phenyl)-3-(3-(trifluoromethyl)phenyl)urea]
Ire1 activity with yeast Ire1 (yeast Ire1): 3.00E−03
Ire1 activity with human Ire1 alpha [1]: 0.1506

Compound: CNC(=O)c1cc(Oc2ccc(NC(=O)Nc3ccc(Cl)c(C(F)(F)F)c3)cc2)ccn1 [Sorafenib, reference compound]
Ire1 activity with yeast Ire1 (yeast Ire1): 0.0683
Ire1 activity with human Ire1 alpha [1]: 0.03645

The remaining lines, values ahead:

Ire1 activity with yeast Ire1 (yeast Ire1): 3.26E−03
Ire1 activity with human Ire1 alpha [1]: 0.05508
Compound: CC(C)n1nc(-c2ccc(NC(=O)Nc3cccc(C(F)(F)F)c3)cc2)c2c(N)ncnc21 [AD57, 1-(4-(4-amino-1-isopropyl-1H-pyrazolo[3,4-d]pyrimidin-3-yl)phenyl)-3-(3-(trifluoromethyl)phenyl)urea]

inhibition of yIre1 (in words) (yeast Ire1): can inhibit
Ire1 activity with yeast Ire1 (yeast Ire1): 2.42E−03
inhibition of hIre1 (in words) [1]: can inhibit
Ire1 activity with human Ire1 alpha [1]: 0.02258
Ire1 activity [1]: 4.0180e−3
Ire1 activity (yIre1): 4.04E−05
Compound: Nc1ncnc2c1c(-c1ccc(NC(=O)Nc3cccc(C(F)(F)F)c3)cc1)nn2C1CCCC1 [AD60, 1-(4-(4-amino-1-cyclopentyl-1H-pyrazolo[3,4-d]pyrimidin-3-yl)phenyl)-3-(3-(trifluoromethyl)phenyl)urea]

Ire1 activity [1]: 6.9280e−4
Ki (hIre1): ~1 µM
Compound: Nc1ncnc2c1c(-c1ccc(NC(=O)Nc3cccc(C(F)(F)F)c3)cc1)nn2CCCO [AD64]

Ki (hIre1): ~30 µM
Compound: Nc1ncnc2c1c(-c1ccc(NC(=O)c3cccc(C(F)(F)F)c3)cc1)nn2CCCO [AD65]

Ire1 activity [1]: 0.0107
Compound: Nc1ncnc2c1c(-c1ccc(NC(=O)Nc3cccc(C(F)(F)F)c3)cc1)nn2[C@H]1CCOC1 [AD66, 1-(4-(4-amino-1-((S)-tetrahydrofuran-3-yl)-1H-pyrazolo[3,4-d]pyrimidin-3-yl)phenyl)-3-(3-(trifluoromethyl)phenyl)urea]

Ire1 activity [1]: 0.0127
Compound: Nc1ncnc2c1c(-c1ccc(NC(=O)Nc3cccc(C(F)(F)F)c3)cc1)nn2[C@@H]1CCOC1 [AD69, 1-(4-(4-amino-1-((R)-tetrahydrofuran-3-yl)-1H-pyrazolo[3,4-d]pyrimidin-3-yl)phenyl)-3-(3-(trifluoromethyl)phenyl)urea]

Ire1 activity [1]: 9.0580e−3
Compound: Nc1ncnc2c1c(-c1ccc(NC(=O)c3cccc(C(F)(F)F)c3)cc1)nn2[C@H]1CCNC1 [AD70, N-(4-(4-amino-1-((S)-pyrrolidin-3-yl)-1H-pyrazolo[3,4-d]pyrimidin-3-yl)phenyl)-3-(trifluoromethyl)benzamide]

Ire1 activity [1]: 6.4950e−3
Compound: Nc1ncnc2c1c(-c1ccc(NC(=O)c3cccc(C(F)(F)F)c3)cc1)nn2[C@@H]1CCNC1 [AD72, N-(4-(4-amino-1-((R)-pyrrolidin-3-yl)-1H-pyrazolo[3,4-d]pyrimidin-3-yl)phenyl)-3-(trifluoromethyl)benzamide]
